What was measured:
DU145 cell line = test system: DU145 cell line; set-up: method as in PMID 27462923; details: DU145, up to 150 µM; cited from earlier work
PC3 cell line = test system: PC3 cell line; set-up: method as in PMID 27462923; details: PC3, up to 150 µM; cited from earlier work
NHF cells = test system: NHF cells; set-up: method as in PMID 15016660; details: 100–200 µM; cited from earlier work
Caco-2 cells = test system: Caco-2 cells; set-up: method as in PMID 15016660; details: Caco-2, 100–200 µM; cited from earlier work
HeLa cells = test system: HeLa cells; set-up: method as in PMID 15016660; details: 100–200 µM; cited from earlier work
MCF-7 = test system: MCF-7; set-up: method as in PMID 15680311; details: MCF-7, 50–200 µM; cited from earlier work
SF-268 cells = test system: SF-268 cells; set-up: method as in PMID 15680311; details: SF-268, 50–200 µM; cited from earlier work
HCT-116 cells = test system: HCT-116 cells; set-up: method as in PMID 15680311; details: HCT-116, 50–200 µM; cited from earlier work
NCI H460 cells = test system: NCI H460 cells; set-up: method as in PMID 15680311; details: NCI H460, 50–200 µM; cited from earlier work
A549 cells = test system: A549 cells; set-up: method as in PMID 24124611; details: cited from earlier work
NCI-H441 cells = test system: NCI-H441 cells; set-up: method as in PMID 24124611; details: cited from earlier work
SK-MES-1 cells = test system: SK-MES-1 cells; set-up: method as in PMID 24124611; details: cited from earlier work
HCT116 cells = test system: HCT116 cells; set-up: method as in PMID 18729103; details: cited from earlier work
LoVo cells = test system: LoVo cells; set-up: method as in PMID 20494645; details: LoVo parent cell line; cited from earlier work
HT29 cells = test system: HT29 cells; set-up: method as in PMID 17729219; details: cited from earlier work
glyoxalase I = target: glyoxalase I; set-up: method as in PMID 20801663; details: read-out: IC50 for glyoxalase I inhibition; cited from earlier work
PEO1 cells = experiment: Cell migration (scraped area closure); type: cell-based, human
Method: Ovarian cancer cells and human normal fibroblasts were seeded on a 24-well plate at a density of 7 × 10^4/well (PEO1), 6.5 × 10^4/well (SKOV3) and 6 × 10^4/well (MRC-5) in 700 µL of appropriate cell medium and cultured at 37 °C to reach 90–95% confluence. Then, the cells in the middle of the wells were scraped off using sterile pipette tips (100 µL), cell debris was removed by washing with medium containing 2% FBS and the tested compounds diluted with medium containing 2% FBS were added. Images of the scraped area were collected after 12 h and 24 h at 10× objective magnification using an Olympus CKX53 microscope with a U-TV0. 5XC-3 digital microscope camera. The obtained results were analyzed using ImageJ software. The percentage of scraped area closure was estimated as the ratio of area measured after 12- or 24-h incubation and the area at the beginning of the experiment.

four OC cell lines = test system: four OC cell lines; set-up: method as in PMID 26259240; details: cited from earlier work
[1] = test system: Multidrug-resistant SKOV3 cells; set-up: method as in PMID 22954696; details: cited from earlier work
[2] = test system: not multi-resistant SKOV3 cells; set-up: method as in PMID 22954696; details: cited from earlier work

| SMILES | viability (DU145 cell line) | viability (PC3 cell line) | viability (NHF cells) | viability (Caco-2 cells) | viability (HeLa cells) | viability (MCF-7) | viability (SF-268 cells) | viability (HCT-116 cells) | viability (NCI H460 cells) | IC50 (A549 cells) | IC50 (NCI-H441 cells) | IC50 (SK-MES-1 cells) | IC50 (HCT116 cells) | IC50 (LoVo cells) | IC50 (HT29 cells) | IC50 (glyoxalase I) | cell migration (PEO1 cells) | IC50 (four OC cell lines) | IC50 [1] | IC50 [2] |
| --- | --- | --- | --- | --- | --- | --- | --- | --- | --- | --- | --- | --- | --- | --- | --- | --- | --- | --- | --- | --- |
| Oc1cc(O)c2cc(O)c(-c3cc(O)c(O)c(O)c3)[o+]c2c1 [Delphinidin chloride, 3,3′,4′,5,5′,7-hexahydroxyflavylium] | did not affect the viability | did not affect the viability | decreased the viability | decreased the viability | decreased the viability | decreased, concentration-dependently, the viability | did not affect significantly the viability | did not affect significantly the viability | did not affect significantly the viability | 55 µM | 58 µM | 44 µM | 110 µM | 38 µM | 35 µM | 1.9 µM |  |  |  |  |
| O=C(O)C(=O)CBr [3-BP, 3-bromopyruvic acid] |  |  |  |  |  |  |  |  |  |  |  |  |  |  |  |  | significantly inhibited | 16 to 84 µM | 22 ± 4 µM | 19 ± 3 µM |

— publication PMC7828231, “Delphinidin Increases the Sensitivity of Ovarian Cancer Cell Lines to 3-bromopyruvate” (International Journal of Molecular Sciences, 2021)
